Source: patent US20090062273A1, “3-H-pyrazolopyridines and salts thereof, pharmaceutical compositions comprising same, methods of preparing same and uses of same” (priority 2006, published 2009)
pIC50: −log10 of the molar value.

Columns and labels:
Tie2 [1] = biological target: T1, Tie2 (Homo sapiens, UniProt Q02763); experiment: Tie2 ELISA assay (cellular Tie2 autophosphorylation); assay type: cell-based; design: expressed in transfected cells; host or cells: CHO (CHO Tie2/DHFR); details: CHO cells stably transfected with Tie2, stimulated by angiopoietin-2; Tie2 autophosphorylation by sandwich-ELISA; read-out: Tie 2 activity (assay 1)
Target sequence in this assay (Q02763 23-1124, species assumed): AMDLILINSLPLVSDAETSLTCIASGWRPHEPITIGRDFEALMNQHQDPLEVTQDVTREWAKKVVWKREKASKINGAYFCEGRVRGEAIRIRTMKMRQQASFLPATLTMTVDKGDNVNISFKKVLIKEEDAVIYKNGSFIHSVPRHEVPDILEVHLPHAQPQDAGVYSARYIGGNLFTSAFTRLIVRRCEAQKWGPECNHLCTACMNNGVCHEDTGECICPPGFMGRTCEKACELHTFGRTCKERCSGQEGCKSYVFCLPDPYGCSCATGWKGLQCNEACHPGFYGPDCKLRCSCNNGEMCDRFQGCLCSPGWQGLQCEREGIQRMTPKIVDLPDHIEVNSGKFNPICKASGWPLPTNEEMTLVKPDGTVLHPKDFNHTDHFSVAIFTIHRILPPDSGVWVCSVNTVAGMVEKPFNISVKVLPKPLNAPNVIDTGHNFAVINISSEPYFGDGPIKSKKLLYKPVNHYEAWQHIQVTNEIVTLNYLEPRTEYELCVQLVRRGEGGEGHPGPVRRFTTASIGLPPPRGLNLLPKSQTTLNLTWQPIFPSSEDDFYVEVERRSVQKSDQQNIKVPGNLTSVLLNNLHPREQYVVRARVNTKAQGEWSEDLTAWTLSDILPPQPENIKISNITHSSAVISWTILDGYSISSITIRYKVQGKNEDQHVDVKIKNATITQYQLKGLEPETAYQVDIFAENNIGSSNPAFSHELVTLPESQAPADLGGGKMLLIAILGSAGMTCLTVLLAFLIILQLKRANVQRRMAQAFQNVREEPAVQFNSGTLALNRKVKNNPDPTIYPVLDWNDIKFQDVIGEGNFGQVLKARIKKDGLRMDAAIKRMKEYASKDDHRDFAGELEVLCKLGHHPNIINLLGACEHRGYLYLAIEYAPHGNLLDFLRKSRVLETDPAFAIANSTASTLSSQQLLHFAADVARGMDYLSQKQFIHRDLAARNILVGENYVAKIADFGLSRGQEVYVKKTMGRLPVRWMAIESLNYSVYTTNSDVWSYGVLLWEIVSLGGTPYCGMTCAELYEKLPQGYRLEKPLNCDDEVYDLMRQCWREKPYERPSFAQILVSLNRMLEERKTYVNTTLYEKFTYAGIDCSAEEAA

Tie2 [2] = biological target: T1, Tie2; experiment: Tie-2-Kinase HTRF-Assay without kinase preactivation; assay type: biochemical; design: fusion protein of GST and the intracellular domains of Tie-2; GST; made in house; host or cells: insect cells (Hi-5); details: GST-Tie-2 intracellular domains, 10 μM ATP
How it was run: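 GST fusion of the Tie-2 intracellular domains from insect cells, not preactivated, run 60 min at 22 °C with 10 μM ATP and 1 μM biotinylated peptide, HEPES pH 7 with MgCl2/MnCl2, 1% DMSO; compounds 0.001-20 μM. EDTA stop, HTRF 665/620 nm ratio; IC50 by 4-parameter fit.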
Target sequence in this assay (Q02763 770-1124 limits assumed, species assumed): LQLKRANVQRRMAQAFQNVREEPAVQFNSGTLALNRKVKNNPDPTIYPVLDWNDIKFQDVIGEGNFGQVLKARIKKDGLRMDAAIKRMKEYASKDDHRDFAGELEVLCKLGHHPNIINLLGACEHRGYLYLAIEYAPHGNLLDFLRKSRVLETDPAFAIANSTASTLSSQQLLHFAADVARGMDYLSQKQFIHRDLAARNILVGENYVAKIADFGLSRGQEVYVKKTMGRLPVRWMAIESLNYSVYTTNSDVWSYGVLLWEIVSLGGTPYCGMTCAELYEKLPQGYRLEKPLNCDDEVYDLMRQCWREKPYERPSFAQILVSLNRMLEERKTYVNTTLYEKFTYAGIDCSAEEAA

pIC50 (Tie2 [1])	pIC50 (Tie2 [2])	SMILES
> 6.30	> 6.30	Cn1ncc2c(-c3ccc(NC(=O)Nc4cc(C(C)(C)C)nn4-c4cncc(F)c4)cc3)cncc21 [Example 15.12, 1-[5-tert-Butyl-2-(5-fluoro-pyridin-3-yl)-2H-pyrazol-3-yl]-3-[4-(1-methyl-1H-pyrazolo[3,4-c]pyridin-4-yl)-phenyl]-urea]
> 6.30	> 6.30	Cn1ncc2c(-c3ccc(NC(=O)Nc4cc(C(C)(C)C)nn4-c4cncc(F)c4)c(F)c3)cncc21 [Example 15.13, 1-[5-tert-Butyl-2-(5-fluoro-pyridin-3-yl)-2H-pyrazol-3-yl]-3-[2-fluoro-4-(1-methyl-1H-pyrazolo[3,4-c]pyridin-4-yl)-phenyl]-urea]
